Test results as given in patent US20150272959A1, “SMALL MOLECULES AS ANTI-HIV AGENTS THAT DISRUPT VIF SELF-ASSOCIATION AND METHODS OF USE THEREOF” (OYAGEN, INC., priority 2012, published 2015).
“And” between values parts separate entries of the source, which are not always exact repeats. Equal entries are not always repeated. Where two headings read alike, the source gives them in different places.

Columns and labels:
pseudotyped HIV = format: cell-based; conditions: for efficacy: all concentrations tested below 15 μM; for toxicity: concentrations higher than 15 μM
Excerpt: This figure is a visual representation of how the single cycle infectivity experiments were done. They are in 6 well format in order to obtain enough virus to do viral particle purifications for western blot detection of A3G in the viral particle. […] The wild type HIV proviral vector codes for all HIV genes except nef (replaced with EGFP) and env. […] Alternatively, in the absence of A3G, both wild type and ΔVif viruses should have high infectivity.
[…]. Viral load was then normalized with a p24 ELISA (Perkin Elmer).
The infections utilized TZM-bl reporter cells that contain stably integrated luciferase that is driven by the HIV-LTR promoter, therefore luciferase is expressed upon successful HIV infection. Triplicate infections in 96-well plates at 10,000 cells/well with 500 pg p24/well proceeded for 48 hours before the addition of SteadyGlo™ Reagent (Promega) to each well for 30 minutes. Luminescence was measured as a quantitative metric for changes in infectivity with each compound as compared to controls, in which relative luminescence units (RLU) with no chemistry are set to 100%.
This figure is intended to highlight where in the experimental method negative results occurred. Although all compounds to this point in screening have shown little to no toxicity in the Primary and Secondary Screens, when cells are challenged with viral production they are more sensitive to toxicity from chemistries since cells have to combat viral proteins overtaking of cellular pathways and any adverse effects from the chemistries. […] If the producer cells are healthy and make enough virus for infectivity testing there are three possible outcomes and two are undesirable for any chemistry to go forward into probe development. […] This is best represented as a differential between infectivity in the presence of Vif and A3G vs the absence of Vif and A3G.
Each compound was tested at multiple concentrations in separate infectivity assays. The concentrations are listed on the top, followed by the infectivity in relation to the no chemistry control for both + and −Vif and A3G conditions, and the large number on the bottom is the differential between infectivity of +Vif virus and with A3G cotransfected compared to −Vif virus without A3G (purple numbers are for good values and blue numbers are for weak values). […] For compound 9 although the drop in infectivity compared to the no chemistries controls are not as low as for compounds 21 and 24 for +Vif and A3G infectivities, there is an increase in the −Vif and A3G infectivities compared to control making the differential between the +/−Vif and A3G virus lower than 24 and 21 at 0.33 and 0.44 in Dry Powder Infectivities B&C. Note that normalization for the viral load with p24 only accounts for total viral particles in the media, but is unable to discriminate between mature and immature virions. If a chemistry has an effect on % of mature virions compared to the no chemistry control there could be an impact on viral infectivity values compared to control. Therefore, although it is crucial to see lower infectivity than the no chemistry control the more critical number is the differential between +/−Vif and A3G, because both those virial preps contain the chemistry and would have similar effects on the viral populations going into the infectivity assay. On the other hand, compound 21 has +Vif and A3G infectivity at 56% at 15 μM but the −Vif and A3G infectivity is only at 63% making the differential only 0.88.

[1] = tested on: A3G in the viral particle; test: A3G in the viral particle, western blot A3G:p24 ratio (FIG. 18); format: cell-based, HIV; conditions: for increase of A3G:p24 ratio over the negative control: parallel to Dry Powder Infectivities B & C, 30 ng p24
Protocol: Parallel to Dry Powder Infectivities B & C, viral particles (30 ng p24) were pelleted through a 20% sucrose cushion, resolved by SDS-PAGE and western blotted for VS-tagged A3G and p24. The yield of A3G relative to p24 (as a virus loading control) was quantified by scanning densitometry to validate the antiviral mechanism. The first two lanes are the −Vif virus with A3G (positive control) and the +Vif virus with A3G (negative control). The A3G:p24 Ratio for the negative control was set to 1 (Ratios listed under the westerns). Chemistry 24 had 5 and 15 fold increases over the negative control. On the other hand, chemistry 9 had increases of 55 and 76-fold over the control, both higher than the positive control at 48-fold above the negative control. However, the positive control has lower overall infectivity and differentials than 9.

CEMSS (-A3G) cells = format: cell-based
Excerpt: (§1) All the screens to this point utilized 293T cells and the Brd. […] The rationale is to set a CC50 standard in T cells to measure against for medicinal chemistry derived compounds created from these scaffolds going forward. CEMSS (−A3G) and A3.01 (+A3G) were selected, because they are both CEM derived T cell lines that can be used to compare in live virus spreading infections for A3G-dependency.

A3.01 (+A3G) cells = format: cell-based
Excerpt: as §1

[2] = tested on: Vif-dependent A3G degradation; test: Vif-dependent A3G-mCherry degradation assay in 293T cells; format: cell-based; conditions: single dose 8 μM
Protocol: A3G-mCherry is stably expressed in 293T cells under puromycin selection. 50 ng of Vif was transiently transfected into the cells in 384-well format with Turbofect. 4 hours after transfection the chemistries were added to cells in a range from (0.5-16 μM). 24 hours after chemistries were added the mCherry signal was read on a Biotek Synergy 4 plate reader. The signal from cells plated but not transfected with Vif was averaged and set at 100% (left image), and cells transfected with Vif and treated with DMSO only were averaged and set at 0% (right image). A chemistry that inhibits Vif's ability to chaperone A3G to the proteasomal degradation pathway would result in an increased mCherry signal compared to the DMSO only control, and any signal that is much higher than the no Vif positive control is likely to be due to autofluorescence from the chemistry itself.
To simplify the numbering the compounds were numbered from 1 to 32 in the same order as plated in the original vials and listed on the original Dry Powder list sent with the vials by the Broad. […] The first compound is 02-16, which is the lead from the previous OyaGen screen mentioned above with strong A3G dependency in live virus tests and the last data set are the DMSO controls that were averaged out to set the 0% mark. […]

[3] = 15 μM, relative to no chemistry control

Row | SMILES | +/-Vif and A3G differential (in words) (pseudotyped HIV) | -Vif and A3G infectivities compared to control (pseudotyped HIV) | antiviral activity (pseudotyped HIV) | differential between +/-Vif and A3G virus infectivity (pseudotyped HIV; Dry Powder Infectivity B) | differential between +/-Vif and A3G virus infectivity (pseudotyped HIV; Dry Powder Infectivity C) | efficacy (pseudotyped HIV) | toxicity (pseudotyped HIV) | A3G in the viral particles (in words) [1] | increase of A3G:p24 ratio over the negative control [1] | CC50 (CEMSS (-A3G) cells) [µM] | CC50 (A3.01 (+A3G) cells) [µM] | DMSO stock test [2] | differential between +/-Vif and A3G infectivity (pseudotyped HIV; 15 μM) | +Vif and A3G infectivity (pseudotyped HIV; [3]) [%] | -Vif and A3G infectivity (pseudotyped HIV; [3]) [%] | toxic effects (pseudotyped HIV; above 30 μM) | differential between +/-Vif and A3G infectivity (pseudotyped HIV; above 30 μM, Dry Powder infectivity A) | differential between +/-Vif and A3G infectivity (pseudotyped HIV; above 30 μM, Dry Powder infectivity C)
1 | Cc1nnc2ccc(-c3cccc(NS(=O)(=O)c4cc(F)ccc4F)c3)nn12 [Compound 9] | differential between +/−Vif and A3G infectivities | increase | antiviral activity | 0.33 | 0.44 | displayed efficacy | slight toxicity | increase in A3G | 55 fold and 76 fold | > 25 | > 25 | low | – | – | – | – | – | –
2 | FC(F)(F)c1nnc2c3ccccc3c(Cl)nn12 [Compound 24] | differential between +/−Vif and A3G infectivities | – | antiviral activity | – | – | displayed efficacy | slight toxicity | increase in A3G | – | 9.7 | 4.9 | – | – | – | – | – | – | –
3 | O=C(NC1(C(F)(F)F)Oc2ccc(Cl)cc2O1)N1CCC2(CC1)OCCO2 (stereo not shown) [Compound 21] | differential between +/−Vif and A3G infectivities | – | antiviral activity | – | – | – | – | increase in A3G | 4 fold and 5 fold | > 25 | > 25 | – | 0.88 | 56 | 63 | no toxic effects | 0.65 | 0.57
